Like-named read-outs stand apart in the source and are kept apart here. One block for each compound: values may come before it.
How the values were obtained:
[1] = human, in vivo; for time at which peak plasma concentrations (Cmax) were achieved / time of rapid rise of the metabolites in the serum after starting the infusion: iv
Method: (§1) A non-randomized phase I clinical trial was conducted at 4 institutions in the US and Taiwan.
(§2) Patients were included in this trial if they are over the age of 18, with advanced cancer and the ECOG performance status is 0 or 1. […] Patients were excluded from the study if they have previously received more than 3 regimens of chemotherapy, or if they have received chemotherapy or radiotherapy within 4 weeks of the trial recruitment.
(§3) Eligible patients were given the pharmaceutical composition of the present invention, comprising a mixture of TLC388HCl and mPEG2000-DSPE in a molar ratio of 1:0.7 to 1:0.9 (known as Lipotecan®). […] The pharmaceutical composition was administered as a 30-min IV infusion, on days 1, 8, and 15 of a 28-day cycle (i.e. 3 IV infusions per 28-day cycle).
(§4) Serum samples were collected from the patients for pharmacokinetic analysis on day 1, day 8 and day 15 of Cycles 1 and 2, at the following times:
(§5) Post IV infusion: (Day 1 and 8 of Cycle 1): 33 min; 40 min; 50 min; 1 h; 1 h 30 min; 2 h; 4 h and 8 h. Post IV infusion (Day 15 of Cycle 1 and Day 1, 8, and 15 of Cycle 2): 4 h. Patients were assessed every 8 weeks, after 2 cycles of treatments.
(§6) During the 2-cycle study period, the patients were examined regularly for the following outcomes: • Side effect/DLT; • The pK profiles of the (S,S) and (S,R) diastereomers of TLC388HCl, its 3 metabolites (TLC-U1, TLC-U2 and Topotecan) on day 1 and day 8 of the treatment cycle; and • Anti-cancer efficacy.

topoisomerase I = target: T1, topoisomerase I (Homo sapiens, UniProt P11387); assay: Topoisomerase I inhibition; format: biochemical
T1 sequence (P11387 1-765): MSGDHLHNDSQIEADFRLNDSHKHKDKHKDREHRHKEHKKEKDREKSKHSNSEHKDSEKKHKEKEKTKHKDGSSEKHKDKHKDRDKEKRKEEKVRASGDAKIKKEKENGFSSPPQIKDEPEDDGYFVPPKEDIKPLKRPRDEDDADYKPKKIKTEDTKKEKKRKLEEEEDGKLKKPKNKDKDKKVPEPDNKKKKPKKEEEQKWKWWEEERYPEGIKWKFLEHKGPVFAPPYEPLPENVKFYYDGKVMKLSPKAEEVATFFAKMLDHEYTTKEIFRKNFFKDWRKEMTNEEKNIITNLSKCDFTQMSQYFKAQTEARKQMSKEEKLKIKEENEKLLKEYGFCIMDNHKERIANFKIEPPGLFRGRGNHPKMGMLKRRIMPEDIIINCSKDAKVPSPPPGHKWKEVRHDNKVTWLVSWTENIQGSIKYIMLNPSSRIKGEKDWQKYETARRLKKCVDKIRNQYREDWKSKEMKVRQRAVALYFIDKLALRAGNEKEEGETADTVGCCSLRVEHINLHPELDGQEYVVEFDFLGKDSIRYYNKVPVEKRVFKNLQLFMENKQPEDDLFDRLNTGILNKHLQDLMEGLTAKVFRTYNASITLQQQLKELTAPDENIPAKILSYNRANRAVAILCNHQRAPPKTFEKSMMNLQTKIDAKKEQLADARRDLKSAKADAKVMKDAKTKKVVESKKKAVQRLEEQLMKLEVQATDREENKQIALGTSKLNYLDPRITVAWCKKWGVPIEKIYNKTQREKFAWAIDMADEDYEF

clinical = conditions: human, in vivo
Method: as §1, §2, §3, §4, §5, §6

- Cmax and AUCo-t of TLC-U1 relative to TLC-U2 [1]: 3-4 times
- Cmax and AUCo-t of TLC-U1 relative to topotecan [1]: approximately 2 times
- Dose-normalized AUClast [1]: 14.49 ± 4.46 nM*h/(mg/m^2)
- Dose-normalized Cmax [1]: 10.15 ± 3.87 nM/(mg/m^2)
- difference between PK profiles on Day 1 and Day 8 [1]: no significant difference
- dose proportionality of exposure [1]: roughly dose proportional
- AUC0-t ([1]; 1.5 mg/m2): 10.869 (1.365) hr · ng/mL
- Cmax ([1]; 1.5 mg/m2): 6.897 (1.325) ng/mL
- Tmax ([1]; 1.5 mg/m2): 0.483 (0.000) hr
- t1/2 ([1]; 1.5 mg/m2): 2.687 (0.329) hr
- AUC0-t ([1]; 3 mg/m2): 16.705 (4.893) hr · ng/mL
- AUC0-t ([1]; 6 mg/m2): 46.533 (10.74) hr · ng/mL
- AUC0-t ([1]; 9 mg/m2): 54.481 (10.70) hr · ng/mL
- AUC0-t ([1]; 20 mg/m2): 101.46 (37.00) hr · ng/mL
- AUC0-t ([1]; 30 mg/m2): 190.59 (33.45) hr · ng/mL
- AUC0-t ([1]; 35 mg/m2): 406.54 (77.86) hr · ng/mL
- Cmax ([1]; 35 mg/m2): 327.75 (216.8) ng/mL
- Tmax ([1]; 35 mg/m2): 0.546 (0.087) hr
- t1/2 ([1]; 35 mg/m2): 4.064 (1.658) hr
- AUC0-t ([1]; 40 mg/m2): 285.94 (207.9) hr · ng/mL
- AUC0-t ([1]; 50 mg/m2): 349.27 (131.8) hr · ng/mL
- AUC0-t ([1]; 60 mg/m2): 417.98 (54.75) hr · ng/mL
- time at which peak plasma concentrations (Cmax) were achieved [1]: within one hour
- time of rapid rise of the metabolites in the serum after starting the infusion [1]: ≤ 15 min
- topoisomerase I inhibition (topoisomerase I): weak topoisomerase I Inhibitors
- AUC0-t (clinical; 1.5 mg/m2, AUC0-t): 13 ng·h/mL
- Cmax (clinical; 1.5 mg/m2, Cmax): 11.2 ng/mL
- Tmax (clinical; 1.5 mg/m2, Tmax): 0.628 h
- half-life (clinical; 1.5 mg/m2, t1/2): 2.79 h
- AUC0-t (clinical; 3 mg/m2, AUC0-t): 24.6 ng·h/mL
- Cmax (clinical; 3 mg/m2, Cmax): 17.1 ng/mL
- Tmax (clinical; 3 mg/m2, Tmax): 0.467 h
- half-life (clinical; 3 mg/m2, t1/2): 2.65 h
- AUC0-t (clinical; 6 mg/m2, AUC0-t): 44.3 ng·h/mL
- Cmax (clinical; 6 mg/m2, Cmax): 28.5 ng/mL
- Tmax (clinical; 6 mg/m2, Tmax): 0.467 h
- half-life (clinical; 6 mg/m2, t1/2): 2.9 h
- AUC0-t (clinical; 9 mg/m2, AUC0-t): 48.6 ng·h/mL
- Cmax (clinical; 9 mg/m2, Cmax): 37.8 ng/mL
- Tmax (clinical; 9 mg/m2, Tmax): 0.563 h
- half-life (clinical; 9 mg/m2, t1/2): 3.68 h
- AUC0-t (clinical; 13.5 mg/m2): 99.1 ng·h/mL
- Cmax (clinical; 13.5 mg/m2): 56.3 ng/mL
- Tmax (clinical; 13.5 mg/m2): 0.308 h
- half-life (clinical; 13.5 mg/m2): 2.85 h
- AUC0-t (clinical; 20 mg/m2, AUC0-t): 112 ng·h/mL
- Cmax (clinical; 20 mg/m2, Cmax): 87.4 ng/mL
- Tmax (clinical; 20 mg/m2, Tmax): 0.405 h
- half-life (clinical; 20 mg/m2, t1/2): 2.95 h
- AUC0-t (clinical; 30 mg/m2, AUC0-t): 163 ng·h/mL
- Cmax (clinical; 30 mg/m2, Cmax): 105 ng/mL
- Tmax (clinical; 30 mg/m2, Tmax): 0.454 h
- half-life (clinical; 30 mg/m2, t1/2): 2.66 h
- AUC0-t (clinical; 35 mg/m2, AUC0-t): 340 ng·h/mL
- Cmax (clinical; 35 mg/m2, Cmax): 196 ng/mL
- Tmax (clinical; 35 mg/m2, Tmax): 0.638 h
- half-life (clinical; 35 mg/m2, t1/2): 5.33 h
- AUC0-t (clinical; 40 mg/m2, AUC0-t): 283 ng·h/mL
- Tmax (clinical; 40 mg/m2, Tmax): 0.392 h
- half-life (clinical; 40 mg/m2, t1/2): 2.94 h
- AUC0-t (clinical; 50 mg/m2, AUC0-t): 365 ng·h/mL
- Cmax (clinical; 50 mg/m2, Cmax): 242 ng/mL
- Tmax (clinical; 50 mg/m2, Tmax): 0.436 h
- half-life (clinical; 50 mg/m2, t1/2): 2.9 h
- AUC0-t (clinical; 60 mg/m2, AUC0-t): 421 ng·h/mL
- Cmax (clinical; 60 mg/m2, Cmax): 347 ng/mL
- Tmax (clinical; 60 mg/m2, Tmax): 0.357 h
- half-life (clinical; 60 mg/m2, t1/2): 2.91 h
- Tmax (clinical; 60 mg/m2, tmax): 0.45 ± 0.17 h
- half-life (clinical; T1/2): > 2.5 h
- Tmax (clinical; Tmax): < 1 h
Structure (SMILES): CC[C@@]1(OC(=O)[C@@H](C)O)C(=O)OCc2c1cc1n(c2=O)Cc2cc3c(CN(C)C)c(O)ccc3nc2-1 [TLC-U1, S,R-topotecan lactate]

Structure (SMILES): CC[C@@]1(O)C(=O)OCc2c1cc1n(c2=O)Cc2cc3c(CN(C)C)c(O)ccc3nc2-1 [Topotecan, reference compound]
- Dose-normalized AUClast [1]: 8.52 ± 3.09 nM*h/(mg/m^2)
- Dose-normalized Cmax [1]: 1.95 ± 1.04 nM/(mg/m^2)
- difference between PK profiles on Day 1 and Day 8 [1]: no significant difference
- dose proportionality of exposure [1]: roughly dose proportional
- AUC0-t ([1]; 3 mg/m2): 7.866 ng·h/mL
- AUC0-t ([1]; 6 mg/m2): 21.656 ng·h/mL
- AUC0-t ([1]; 9 mg/m2): 37.978 ng·h/mL
- AUC0-t ([1]; 20 mg/m2): 44.026 ng·h/mL
- AUC0-t ([1]; 30 mg/m2): 120.74 ng·h/mL
- AUC0-t ([1]; 35 mg/m2): 190.91 ng·h/mL
- Cmax ([1]; 35 mg/m2): 58.075 ng/mL
- Tmax ([1]; 35 mg/m2): 0.604 (0.156) hr
- t1/2 ([1]; 35 mg/m2): 6.177 (3.376) hr
- AUC0-t ([1]; 50 mg/m2): 207.30 ng·h/mL
- AUC0-t ([1]; 60 mg/m2): 207.43 ng·h/mL
- time at which peak plasma concentrations (Cmax) were achieved [1]: within one hour
- time of rapid rise of the metabolites in the serum after starting the infusion [1]: ≤ 15 min
- AUC0-t (clinical; 1.3 mg/m2, AUC0-t): 5.32 ng·h/mL
- Cmax (clinical; 1.3 mg/m2, Cmax): 1.06 ng/mL
- Tmax (clinical; 1.3 mg/m2, Tmax): 0.906 h
- half-life (clinical; 1.3 mg/m2, t1/2): 4.32 h
- AUC0-t (clinical; 1.5 mg/m2, AUC0-t): 6.01 ng·h/mL
- Cmax (clinical; 1.5 mg/m2, Cmax): 1.52 ng/mL
- Tmax (clinical; 1.5 mg/m2, Tmax): 0.628 h
- half-life (clinical; 1.5 mg/m2, t1/2): 4.76 h
- AUC0-t (clinical; 3 mg/m2, AUC0-t): 11.7 ng·h/mL
- Cmax (clinical; 3 mg/m2, Cmax): 2.1 ng/mL
- half-life (clinical; 3 mg/m2, t1/2): 7.03 h
- AUC0-t (clinical; 6 mg/m2, AUC0-t): 21.5 ng·h/mL
- Cmax (clinical; 6 mg/m2, Cmax): 4.83 ng/mL
- Tmax (clinical; 6 mg/m2, Tmax): 0.989 h
- half-life (clinical; 6 mg/m2, t1/2): 6.87 h
- AUC0-t (clinical; 9 mg/m2, AUC0-t): 27.6 ng·h/mL
- Cmax (clinical; 9 mg/m2, Cmax): 6.38 ng/mL
- Tmax (clinical; 9 mg/m2, Tmax): 1.15 h
- half-life (clinical; 9 mg/m2, t1/2): 7.7 h
- AUC0-t (clinical; 13.5 mg/m2): 37.6 ng·h/mL
- Cmax (clinical; 13.5 mg/m2): 8.71 ng/mL
- half-life (clinical; 13.5 mg/m2): 6.29 h
- half-life (clinical; 20 mg/m2): 4.65 h
- AUC0-t (clinical; 20 mg/m2, AUC0-t): 47.3 ng·h/mL
- Cmax (clinical; 20 mg/m2, Cmax): 11.3 ng/mL
- Tmax (clinical; 20 mg/m2, Tmax): 0.483 h
- half-life (clinical; 20 mg/m2, t1/2): 5.07 h
- half-life (clinical; 30 mg/m2): 4.63 h
- AUC0-t (clinical; 30 mg/m2, AUC0-t): 97 ng·h/mL
- Tmax (clinical; 30 mg/m2, Tmax): 1.54 h
- half-life (clinical; 30 mg/m2, t1/2): 4.06 h
- AUC0-t (clinical; 35 mg/m2, AUC0-t): 176 ng·h/mL
- Cmax (clinical; 35 mg/m2, Cmax): 51.3 ng/mL
- Tmax (clinical; 35 mg/m2, Tmax): 1 h
- half-life (clinical; 35 mg/m2, t1/2): 7.66 h
- Tmax (clinical; 40 mg/m2, Tmax): 0.85 h
- half-life (clinical; 40 mg/m2, t1/2): 5.84 h
- half-life (clinical; 50 mg/m2): 5.51 h
- AUC0-t (clinical; 50 mg/m2, AUC0-t): 208 ng·h/mL
- Cmax (clinical; 50 mg/m2, Cmax): 37.5 ng/mL
- Tmax (clinical; 50 mg/m2, Tmax): 0.903 h
- half-life (clinical; 50 mg/m2, t1/2): 7.39 h
- AUC0-t (clinical; 60 mg/m2, AUC0-t): 215 ng·h/mL
- Cmax (clinical; 60 mg/m2, Cmax): 57.1 ng/mL
- Tmax (clinical; 60 mg/m2, Tmax): 0.837 h
- half-life (clinical; 60 mg/m2, t1/2): 5.18 h
- Tmax (clinical; 60 mg/m2, tmax): 0.93 ± 0.82 h
- half-life (clinical; T1/2): > 2.5 h
